{"source": "ChEMBL document CHEMBL4819087", "about": "“Identification and optimization of 3-bromo-N'-(4-hydroxybenzylidene)-4-methylbenzohydrazide derivatives as mTOR inhibitors that induce autophagic cell death and apoptosis in triple-negative breast cancer” (Eur J Med Chem, 2021)", "key": {"MDA-MB-231 [1]": {"system": "MDA-MB-231", "experiment": "Induction of autophagy in human MDA-MB-231 cells assessed as MDC positive ratio at 1 uM incubated for 6 hrs by MDC staining based flow cytometry analysis", "type": "functional"}, "[2]": {"target": "T1, Serine/threonine-protein kinase mTOR (Homo sapiens, UniProt P42345)", "experiment": "Inhibition of mTOR in human MDA-MB-231 cells assessed as reduction in P70S6 protein level at 0.5 to 2 uM after 24 hrs by Western blot analysis", "type": "cell-based", "conditions": "dose 0.5-2 µM"}, "[3]": {"target": "T1, Serine/threonine-protein kinase mTOR", "experiment": "Inhibition of mTOR in human MDA-MB-468 cells assessed as reduction in AKT protein level at 0.5 to 2 uM after 24 hrs by Western blot analysis", "type": "cell-based", "conditions": "dose 0.5-2 µM"}, "[4]": {"target": "T1, Serine/threonine-protein kinase mTOR", "experiment": "Inhibition of mTOR in human MDA-MB-231 cells assessed as reduction in p-4EBP1(Thr37/46) protein level at 0.5 to 2 uM after 24 hrs by Western blot analysis", "type": "cell-based", "conditions": "dose 0.5-2 µM"}, "[5]": {"target": "T1, Serine/threonine-protein kinase mTOR", "experiment": "Inhibition of mTOR in human MDA-MB-468 cells assessed as reduction in p-4EBP1(Thr37/46) protein level at 0.5 to 2 uM after 24 hrs by Western blot analysis", "type": "cell-based", "conditions": "dose 0.5-2 µM"}, "[6]": {"target": "T1, Serine/threonine-protein kinase mTOR", "experiment": "Inhibition of mTOR in human MDA-MB-468 cells assessed as reduction in p-AKT(Ser473) protein level at 0.5 to 2 uM after 24 hrs by Western blot analysis", "type": "cell-based", "conditions": "dose 0.5-2 µM"}, "[7]": {"target": "T1, Serine/threonine-protein kinase mTOR", "experiment": "Inhibition of mTOR in human MDA-MB-468 cells assessed as reduction in p70S6K(Thr389) protein level at 0.5 to 2 uM after 24 hrs by Western blot analysis", "type": "cell-based", "conditions": "dose 0.5-2 µM"}, "MDA-MB-231 [8]": {"system": "MDA-MB-231", "experiment": "Antiproliferative activity against human MDA-MB-231 cells measured after 24 hrs by Hoechst 33258 dye based fluorescence microscopic analysis", "type": "functional, cell-based", "conditions": "dose 2.5-10 µM"}, "MDA-MB-468 [9]": {"system": "MDA-MB-468", "experiment": "Antiproliferative activity against human MDA-MB-468 cells measured after 24 hrs by Hoechst 33258 dye based fluorescence microscopic analysis", "type": "functional, cell-based", "conditions": "dose 2.5-10 µM"}, "MDA-MB-231 [10]": {"system": "MDA-MB-231", "experiment": "Inhibition of colony formation in human MDA-MB-231 cells measured after 14 days by crystal violet staining based assay", "type": "functional, cell-based", "conditions": "dose 5-10 µM, time 14.0 day"}, "MDA-MB-231 [11]": {"system": "MDA-MB-231", "experiment": "Induction of apoptosis in human MDA-MB-231 cells assessed as early apoptotic cells at 2.5 uM after 24 hrs by AnnexinV-FITC/PI staining based flow cytometry analysis (reference value: 2.63%)", "type": "functional"}, "MDA-MB-231 [12]": {"system": "MDA-MB-231", "experiment": "Induction of apoptosis in human MDA-MB-231 cells assessed as late apoptotic cells at 2.5 uM after 24 hrs by AnnexinV-FITC/PI staining based flow cytometry analysis (reference value: 0.84%)", "type": "functional"}, "MDA-MB-231 [13]": {"system": "MDA-MB-231", "experiment": "Induction of apoptosis in human MDA-MB-231 cells assessed as early apoptotic cells at 5 uM after 24 hrs by AnnexinV-FITC/PI staining based flow cytometry analysis (reference value: 2.63%)", "type": "functional"}, "MDA-MB-231 [14]": {"system": "MDA-MB-231", "experiment": "Induction of apoptosis in human MDA-MB-231 cells assessed as late apoptotic cells at 5 uM after 24 hrs by AnnexinV-FITC/PI staining based flow cytometry analysis (reference value: 0.84%)", "type": "functional"}, "MDA-MB-231 [15]": {"system": "MDA-MB-231", "experiment": "Induction of apoptosis in human MDA-MB-231 cells assessed as necrotic cells at 10 uM after 24 hrs by AnnexinV-FITC/PI staining based flow cytometry analysis (reference value: 0.083%)", "type": "functional"}, "MDA-MB-468 [16]": {"system": "MDA-MB-468", "experiment": "Induction of apoptosis in human MDA-MB-468 cells assessed as necrotic cells at 2.5 uM after 24 hrs by AnnexinV-FITC/PI staining based flow cytometry analysis (reference value: 1.56%)", "type": "functional"}, "MDA-MB-468 [17]": {"system": "MDA-MB-468", "experiment": "Induction of apoptosis in human MDA-MB-468 cells assessed as late apoptic cells at 5 uM after 24 hrs by AnnexinV-FITC/PI staining based flow cytometry analysis (reference value: 2.84%)", "type": "functional"}, "MDA-MB-468 [18]": {"system": "MDA-MB-468", "experiment": "Induction of apoptosis in human MDA-MB-468 cells assessed as necrotic cells at 5 uM after 24 hrs by AnnexinV-FITC/PI staining based flow cytometry analysis (reference value: 1.56%)", "type": "functional"}, "MDA-MB-468 [19]": {"system": "MDA-MB-468", "experiment": "Induction of apoptosis in human MDA-MB-468 cells assessed as necrotic cells at 10 uM after 24 hrs by AnnexinV-FITC/PI staining based flow cytometry analysis (reference value: 1.56%)", "type": "functional"}, "MDA-MB-231 [20]": {"system": "MDA-MB-231", "experiment": "Induction of apoptosis in human MDA-MB-231 cells assessed as increase in cleaved caspase 3 level at 2.5 to 10 uM incubated for 24 hrs by western blot analysis", "type": "functional, cell-based", "conditions": "dose 2.5-10 µM"}, "MDA-MB-468 [21]": {"system": "MDA-MB-468", "experiment": "Induction of apoptosis in human MDA-MB-468 cells assessed as increase in cleaved caspase 3 level at 2.5 to 10 uM incubated for 24 hrs by western blot analysis", "type": "functional, cell-based", "conditions": "dose 2.5-10 µM"}, "MDA-MB-468 [22]": {"system": "MDA-MB-468", "experiment": "Induction of apoptosis in human MDA-MB-468 cells assessed as increase in Bax level at 2.5 to 10 uM incubated for 24 hrs by western blot analysis", "type": "functional, cell-based", "conditions": "dose 2.5-10 µM"}, "MDA-MB-468 [23]": {"system": "MDA-MB-468", "experiment": "Induction of apoptosis in human MDA-MB-468 cells assessed as decrease in Bcl2 level at 2.5 to 10 uM incubated for 24 hrs by western blot analysis", "type": "functional, cell-based", "conditions": "dose 2.5-10 µM"}, "MDA-MB-231 [24]": {"system": "MDA-MB-231", "experiment": "Induction of autophagy in human MDA-MB-231 cells expressing mRFP-EGFP-LC3B at 5 uM measured after 24 hrs by fluorescence microscopic analysis", "type": "functional, cell-based"}, "MDA-MB-468 [25]": {"system": "MDA-MB-468", "experiment": "Induction of autophagy in human MDA-MB-468 cells expressing mRFP-EGFP-LC3B at 5 uM measured after 24 hrs by fluorescence microscopic analysis", "type": "functional, cell-based"}, "MDA-MB-468 [26]": {"system": "MDA-MB-468", "experiment": "Induction of autophagy in human MDA-MB-468 cells assessed as reduction in p62 protein level at 2.5 to 10 uM incubated for 24 hrs by Western blot analysis", "type": "functional, cell-based", "conditions": "dose 2.5-10 µM"}, "MDA-MB-468 [27]": {"system": "MDA-MB-468", "experiment": "Induction of autophagy in human MDA-MB-468 cells assessed as increase in LC3-II protein level at 2.5 to 10 uM incubated for 24 hrs by Western blot analysis", "type": "functional, cell-based", "conditions": "dose 2.5-10 µM"}, "MDA-MB-231 [28]": {"system": "MDA-MB-231", "experiment": "Antiproliferative activity against human MDA-MB-231 cells assessed as inhibition of cell viability at 5 uM preincubated with autophagy inhibitor, 3-methyladenine for 1 hr followed by compound addition and measured after 24 hrs by MTT assay", "type": "functional, cell-based"}, "MDA-MB-468 [29]": {"system": "MDA-MB-468", "experiment": "Antiproliferative activity against human MDA-MB-468 cells assessed as inhibition of cell viability at 5 uM preincubated with autophagy inhibitor, 3-methyladenine for 1 hr followed by compound addition and measured after 24 hrs by MTT assay", "type": "functional, cell-based"}, "MDA-MB-231 [30]": {"system": "MDA-MB-231", "experiment": "Inhibition of colony formation in human MDA-MB-231 cells at 10 uM incubated for 14 days in presence of autophagy inhibitor, 3-methyladenine by crystal violet staining based analysis", "type": "functional, cell-based", "conditions": "time 14.0 day"}, "MDA-MB-231 [31]": {"system": "MDA-MB-231", "experiment": "Induction of apoptosis in human MDA-MB-231 cells assessed as late apoptotic cells at 10 uM pretreated with autophagy inhibitor, 3-methyladenine for 1 hr followed by incubation with compound and measured after 24 hrs by Annexin V-FITC/propidium iodide staining based flow cytometry (reference value: 3.11%)", "type": "functional", "set-up": "scale not given: the % may be the effect or the level left"}, "MDA-MB-468 [32]": {"system": "MDA-MB-468", "experiment": "Induction of apoptosis in human MDA-MB-468 cells assessed as viable cells at 10 uM pretreated with autophagy inhibitor, 3-methyladenine for 1 hr followed by incubation with compound and measured after 24 hrs by Annexin V-FITC/propidium iodide staining based flow cytometry (reference value: 93.6%)", "type": "functional", "conditions": "read-out: Activity"}, "MDA-MB-231 [33]": {"system": "MDA-MB-231", "experiment": "cells", "conditions": "Homo sapiens, MDA-MB-231, 24 h", "description": "Antiproliferative activity against human MDA-MB-231 cells assessed as reduction in cell viability incubated for 24 hrs by MTT assay"}, "MDA-MB-468 [34]": {"system": "MDA-MB-468", "experiment": "cells", "conditions": "Homo sapiens, MDA-MB-468, 24 h", "description": "Antiproliferative activity against human MDA-MB-468 cells assessed as reduction in cell viability incubated for 24 hrs by MTT assay"}}, "note": "Calls of active or inactive are those of the source. The rule behind the calls is not given here.", "data": [{"smiles": "C/C(=N\\NC(=O)c1cccc(Br)c1)c1ccc(C(=O)Nc2nc3ccccc3[nH]2)cc1", "values": [{"measurement": "Activity", "setting": "MDA-MB-231 [1]", "value": 25.67, "unit": "%"}, {"measurement": "inhibition", "setting": "[2]", "value": "Active"}, {"measurement": "inhibition", "setting": "[3]", "value": "Active"}, {"measurement": "inhibition", "setting": "[4]", "value": "Active"}, {"measurement": "inhibition", "setting": "[5]", "value": "Active"}, {"measurement": "inhibition", "setting": "[6]", "value": "Active"}, {"measurement": "inhibition", "setting": "[7]", "value": "Active"}, {"measurement": "Activity", "setting": "MDA-MB-231 [8]", "value": "Dose-Dependent Effect"}, {"measurement": "Activity", "setting": "MDA-MB-468 [9]", "value": "Dose-Dependent Effect"}, {"measurement": "inhibition", "setting": "MDA-MB-231 [10]", "value": "Dose-Dependent Effect"}, {"measurement": "Activity", "setting": "MDA-MB-231 [11]", "value": 6.84, "unit": "%"}, {"measurement": "Activity", "setting": "MDA-MB-231 [12]", "value": 2.96, "unit": "%"}, {"measurement": "Activity", "setting": "MDA-MB-231 [13]", "value": 10.5, "unit": "%"}, {"measurement": "Activity", "setting": "MDA-MB-231 [14]", "value": 2.3, "unit": "%"}, {"measurement": "Activity", "setting": "MDA-MB-231 [15]", "value": 0.15, "unit": "%"}, {"measurement": "Activity", "setting": "MDA-MB-468 [16]", "value": 1.89, "unit": "%"}, {"measurement": "Activity", "setting": "MDA-MB-468 [17]", "value": 5.16, "unit": "%"}, {"measurement": "Activity", "setting": "MDA-MB-468 [18]", "value": 0.87, "unit": "%"}, {"measurement": "Activity", "setting": "MDA-MB-468 [19]", "value": 1.24, "unit": "%"}, {"measurement": "Activity", "setting": "MDA-MB-231 [20]", "value": "Active"}, {"measurement": "Activity", "setting": "MDA-MB-468 [21]", "value": "Active"}, {"measurement": "Activity", "setting": "MDA-MB-468 [22]", "value": "Active"}, {"measurement": "Activity", "setting": "MDA-MB-468 [23]", "value": "Active"}, {"measurement": "Activity", "setting": "MDA-MB-231 [24]", "value": "Active"}, {"measurement": "Activity", "setting": "MDA-MB-468 [25]", "value": "Active"}, {"measurement": "Activity", "setting": "MDA-MB-468 [26]", "value": "Active"}, {"measurement": "Activity", "setting": "MDA-MB-468 [27]", "value": "Active"}, {"measurement": "Activity", "setting": "MDA-MB-231 [28]", "value": "Active"}, {"measurement": "Activity", "setting": "MDA-MB-468 [29]", "value": "Active"}, {"measurement": "inhibition", "setting": "MDA-MB-231 [30]", "value": "Active"}, {"measurement": "Activity", "setting": "MDA-MB-231 [31]", "value": 6.8, "unit": "%"}, {"measurement": "viability at 10 µM", "setting": "MDA-MB-468 [32]", "value": 81, "unit": "%"}, {"measurement": "IC50", "setting": "MDA-MB-231 [33]", "value": 3.38, "unit": "µM"}, {"measurement": "IC50", "setting": "MDA-MB-468 [34]", "value": 4.3, "unit": "µM"}]}]}
